{
  "source": "patent US7943330B2",
  "about": "“Tailored glycoproteomic methods for the sequencing, mapping and identification of cellular glycoproteins” (Academia Sinica, priority 2007, dated 2011)",
  "key": {"[1]": {"test_system": "plexin B2 in A549 mock, FucT4 and FucT6 cells", "assay": "Incorporation of alkynyl fucose into plexin B2 glycans (IP, on-membrane click reaction, streptavidin blot)", "type": "cell-based", "details": "alkynyl fucose-treated mock, stronger in FucT4/6-overexpressing cells, no signal without treatment", "experimental": "Total proteins were extracted from untreated or alkynyl fucose-treated mock control, FucT4 and FucT6 stable cell lines. Proteins ([…]) were dissolved in 500 ml IP buffer (1% NP-40, 150 mM NaCl, 10% glycerol, 50 mM HEPES, pH 7.5 and 1×EDTA-free protease inhibitor cocktail) and precleared with 25 ml protein G beads (GE Healthcare) at 4° C. for 1 h. Precleared proteins extracts were then incubated with 3 mg anti-plexin B2 antibody/25 ml protein G beads at 4° C. for 1 h for overnight. Immunoprecipitates were subjected to SDS-PAGE and the proteins were transferred to PVDF membrane. After blocking with 5% BSA/PBST (0.1% Tween 20/PBS) for 1 h and wash with PBST and PBS sequentially, the protein-side of PVDF membrane was faced down to immerse in click reaction mixture (0.1 mM azido biotin, 0.1 mM Tris-triazoleamine catalyst, 1 mM CuSO4, 2 mM sodium ascorbate; 1 ml for a blot from a mini-gel) and incubated at room temperature for 1 h. After wash with PBST twice, the membrane was probed with peroxidase-conjugated streptavidin for biotin tags on blots.\nComparative profiling of fucosylated N-linked glycoproteins using the GIDmap method disclosed herein was conducted in lung cancer cell line A549 over-expressing either fucosyltransferases (FucT) 4 or 6. […] The biotin signals were then detected by immunoblotting with peroxidase-conjugated streptavidin. […]"}, "[2]": {"test_system": "MCF7 (breast adenocarcinoma) cells", "assay": "Confocal microscopy of intracellular labeling of alkynyl-tagged glycans", "type": "cell-based, Human", "details": "3-day incubation, biotin probe and fluorescein-conjugated streptavidin, overlaps with WGA (Golgi) signal", "experimental": "(§1) To visualize the localization of alkyne-tagged glycans, adherent cells were grown on slides in the presence or absence of alkynyl sugar analogs or precursors. After a 3-day-incubation, cells attached to the slides are fixed, permeabilized, and labeled with either a biotin probe or fluorogenic coumarin probe for fluorescent signal analysis with confocal microscopy, as shown in FIG. 3C. For comparison, samples are also stained with wheat germ agglutinin (WGA, a Golgi marker).\n(§2) Fluorescent Labeling in Cells: Human hepatocellular carcinoma cells (Hep3B) or breast adenocarcinoma cells (MCF7) were seeded onto six-well plates (3×10^5/2 ml per well) containing glass coverslips, and were cultivated in 10% FCS/DMEM or 10% FCS/RPMI medium 1640. Growth medium was supplemented with a control sugar (200 micromolar Fuc or 25 micromolar ManNAc) and an alkynyl-modified sugar (Fucyne or ManNAcyne at the same concentration as control sugars). After growing for 3 days, cells on coverslips were fixed and permeabilized with acetone for 10 min, then subjected to the probe labeling reaction: 0.1 mM biotin probe or fluorogenic coumarin probe, 0.1 mM Tris-triazoleamine catalyst, 1 mM CuSO4, 2 mM sodium ascorbate, in PBS, at room temperature for 30 min. Subsequently, the fixed and labeled cells were rinsed with PBS and stained with Alexa Fluor 594-conjugated WGA lectin (2 micrograms/ml in 5% BSA/PBS) and/or fluorescein-conjugated streptavidin (2 micrograms/ml in 5% BSA/PBS) at room temperature for 30 min. Hoechst 33342 (10 microgram/ml in PBS) was used to stain nuclei. Fluorescent images were captured by Bio-Rad (Carl Zeiss) Radiance 2100 Rainbow laser scanning confocal microscopy system."}, "cells": {"test_system": "cells", "assay": "Cell toxicity of sugar analogs at the levels used for metabolic incorporation", "type": "cell-based", "details": "compared with azido Fuc analogs of previous approaches; 200 μM fucose precursors, 25 μM sialic acid precursors", "experimental": "In an exemplary implementation of the MOE method disclosed herein, an appropriate cell growth medium is supplemented with a peracetylated version of the CuAAC competent sugars, 25 μM for sialic acid precursors and 200 μM for fucose precursors (although peracetylation increases cellular uptake of sugars, the acetate groups are cleaved by esterases before it is converted to the nucleotide-sugar donor and incorporated into emerging glycans via glycosyltransferases). As shown by the biosynthetic pathways in FIG. 1, the ManNAc derivatives feed directly into de novo synthesis of NeuAc-CMP, whereas, fucose derivatives are incorporated through a salvage pathway for the synthesis of Fuc-GDP. For labeling, the alkyne-tagged cellular glycans, cells and/or cell lysates are treated with an appropriate CuAAC probe (depicted as 6-8 in FIG. 2). Overall, CuAAC is well-suited for functionalizing cellular glycans since it may be performed in aqueous environments, with high chemoselectively, to form stable 1,2,3-triazoles in nearly quantitative yield, starting from inconspicuous and inert azide or alkyne reaction partners. In conjunction the triazole ligand, CuAAc reactions can be executed under very mild and biocompatible conditions, requiring ambient temperature and low reactant concentrations. […] CuAAC is well-suited for end-point analysis, such as flow cytometry and glycoproteomic purposes. […]"}, "Jurkat cells": {"test_system": "Jurkat cells", "assay": "Flow cytometry of cell-surface CuAAC labeling of alkynyl-tagged glycans", "type": "cell-based", "details": "for cell-surface fluorescent labeling: CuAAC with 3-azido-7-hydroxycoumarin probe", "experimental": "Cell culture: Breast cancer MCF-7 and Jurkat cells were cultivated (2×10^6/10 ml) in RPMI 1640 medium (Invitrogen) supplemented with 10% FCS. Peracetylated alkynyl sugars Fucyne (200 uM) and ManNAcyne (25 uM) or native control sugars ManNAc for 1 to 3 days at 37° C.\nFlow cytometry analysis: Cells were harvested, washed with 0.1% FCS/PBS, and resuspended (10^6 cells for Jurkat cells; 3×10^5 cells for other cells) in 100 microliters of click reaction solution (0.1 mM biotin probe, 0.1 mM Tris-triazoleamine catalyst, 0.1 mM CuSO4/0.5 mM sodium ascorbate, in PBS). The reaction was incubated at room temperature for 30 min, and then the cells were washed twice with 0.1% FCS/PBS. Cells treated with biotin probe were subsequently stained with fluorescein-conjugated streptavidin (0.5 microgram per sample in 50 microliters of 1% FCS/PBS) for 30 min at 4° C., and washed three times with 1% FCS/PBS. Data were acquired by BD LSR II with FACSDiva software, and were analyzed by CellQuestPro software (BD Biosciences)."}, "[3]": {"test_system": "cell extracts (soluble lysate fractions)", "assay": "SDS/PAGE, Western blot and fluorescence detection of labeled glycoproteins in cell extracts", "type": "cell-based", "details": "for biotin-labeling signal of proteins by Western blot: lysate clicked with biotin probe, mouse anti-biotin MAb, 200 micromolar Fucyne, 25 micromolar ManNAcyne, 3 days; for signal by Western blot or fluorescence: control sugars processed under the same click condition", "experimental": "Immunoblotting (IB) and immunoprecipitation (IP): Cells were seeded at 3×10^6/8 ml per 10-cm dish and treated with control and test sugars (200 micromolar Fuc vs. Fucyne or 25 micromolar ManNAc vs. ManNAcyne) in growth medium at 37° C. After 3 days, cell extracts were prepared by resuspending the cells in 1 ml of lysis buffer (1% Nonidet P-40/150 mM NaCl/protease inhibitor/100 mM sodium phosphate, pH 7.5). Protein extract (1 mg/ml) was labeled for 1 h at room temperature (0.1 mM biotin probe, or fluorogenic coumarin probe, 0.1 mM tris-triazoleamine catalyst, 1 mM CuSO4, and 2 mM sodium ascorbate, in PBS; the azido rhodamine probe was a gift from Benjamin F. Cravatt, The Scripps Research Institute). Labeled protein lysate was resolved by SDS/PAGE. For immunoblotting of biotin-labeled glycoproteins, electrophoresed proteins were transferred onto PVDF membranes, blocked for 20 min with SuperBlock® Blocking Buffer. Blots were either probed for 1 h with anti-biotin MAb (1 microgram/ml), and incubated with peroxidase-conjugated goat anti-mouse IgG (1:7,500 dilution) for 30 min; or probed for 1 h with peroxidase-conjugated anti-biotin Ab (Calbiochem)(1:5000 in SuperBlock). Each step was followed by a wash with 0.02% Tween 20/PBS (PBST). Signal was developed with SuperSignal Chemiluminescent Substrate and detected by exposure to x-ray film. For detecting the coumarin-labeled glycoproteins, gels were examined under 365 nm UV light with a 535+/−50 nm filter. Images were taken by using a BioDoc-It imaging system (UVP). Rhodamine gels were analyzed as described (Speers A E, Cravatt B F (2004) Chem Biol 11:535-546)."}, "[4]": {"test_system": "Hep3B hepatocellular carcinoma cells", "assay": "Confocal microscopy of intracellular labeling of alkynyl-tagged glycans", "type": "cell-based, Human", "details": "3-day incubation; biotin probe and fluorogenic coumarin probe; compared with the Fucyne result", "experimental": "as §1, §2"}},
  "data": [
    {"compound": "1,2,3,4-tetraacetyl alkynyl fucose [Fucyne]", "values": [
      {"measurement": "biotin signal of immunoprecipitated plexin B2 after on-membrane CuAAC", "setting": "[1]", "result": "positive signals"},
      {"measurement": "intracellular labeling signal (confocal microscopy)", "setting": "[2]", "result": "strong punctuate-labeling signal"},
      {"measurement": "toxicity to cells", "setting": "cells", "result": "greatly reduced toxicity"},
      {"measurement": "cell-surface fluorescent labeling", "setting": "Jurkat cells", "result": "significant fluorescent labeling"},
      {"measurement": "biotin-labeling signal of proteins by Western blot", "setting": "[3]", "result": "specific biotin-labeling signals were detected"}
    ]},
    {"compound": "C[C@H](O)[C@@H](O)[C@@H](O)[C@H](O)C=O", "note": "[Fuc, Fucose, reference compound]", "values": [
      {"measurement": "intracellular labeling signal (confocal microscopy)", "setting": "[2]", "result": "very low background"},
      {"measurement": "cell-surface fluorescent labeling", "setting": "Jurkat cells", "result": "very low background signals"},
      {"measurement": "signal by Western blot or fluorescence", "setting": "[3]", "result": "little to no signal"}
    ]},
    {"compound": "CC(=O)N[C@@H]1C(O)O[C@H](CO)[C@@H](O)[C@@H]1O", "note": "(stereo partly shown) [ManNAc, N-acetylmannosamine, reference compound]", "values": [
      {"measurement": "intracellular labeling signal (confocal microscopy)", "setting": "[4]", "result": "very low background"},
      {"measurement": "signal by Western blot or fluorescence", "setting": "[3]", "result": "little to no signal"}
    ]},
    {"compound": "C#CCCC(=O)N[C@@H]1C(OC(C)=O)O[C@H](COC(C)=O)[C@@H](OC(C)=O)[C@@H]1OC(C)=O", "note": "(stereo partly shown) [ManNAcyne, 1,3,4,6-tetra-O-acetyl-N-4-pentynoylmannosamine]", "values": [
      {"measurement": "toxicity to cells", "setting": "cells", "result": "greatly reduced toxicity"},
      {"measurement": "cell-surface labeling signal", "setting": "Jurkat cells; CuAAC-labeled with biotin, detected by fluorescein-conjugated streptavidin, vs control ManNAc", "result": "specific signal on the cell surface"},
      {"measurement": "biotin-labeling signal of proteins by Western blot", "setting": "[3]", "result": "specific biotin-labeling signals were detected"}
    ]}
  ]
}
